# Assay results as given in patent publication US20140228287A1, “1-[(3-CYANO-PYRIDIN-2-YL)METHYL]-3-METHYL-7-(2-BUTYN-1-YL)-8-[3-(R)-AMINO-PIPERIDIN-1-YL]-AXANTHINE FOR THE TREATMENT OF A METABOLIC DISORDER OF A PREDOMINANTLY CARNIVOROUS NON-HUMAN ANIMAL” (BOEHRINGER INGELHEIM VETMEDICA GMBH, priority 2010, published 2014).
# Where a name gives a salt, the structure may show the parent alone. Read-outs that look alike come from different tables or passages of the source.
# Assays:
# DPP 9 = DPP 9 (Homo sapiens, UniProt Q86TI2); test: In vitro selectivity, human proteases: DPP 9; type: biochemical
# Source text: (§1) In order to determine the in vitro selectivity of 1-[(3-cyano-pyridin-2-yl)methyl]-3-methyl-7-(2-butyn-1-yl)-8-[3-(R)-amino-piperidin-1-yl]-xanthine, the ability of this compound to inhibit a number of human proteases was investigated as described in Thomas et al. (2008), J. Pharmacol. Exp. Ther., vol. 325, p. 175-182, chapter In vitro DPP-4 Inhibition Assay, p. 176.
# plasma DPP IV = molecular target: T1, plasma DPP IV (Homo sapiens, UniProt P27487); test: Inhibition of plasma DPP IV activity in vitro, human plasma; type: biochemical
# T1 construct: from tissue; host or cells: human plasma
# Protocol: (§2) Studies were also conducted to assess the inhibitory effect of this compound on plasma DPP IV activity in several species.
# DPP IV [1] = molecular target: DPP IV (Homo sapiens, UniProt P27487); test: In vitro DPP IV inhibition; type: biochemical; conditions: for IC50: in vitro
# Protocol: as §2
# DPP IV [2] = molecular target: T2, DPP IV (Felis catus, UniProt Q9N2I7); test: Exploratory single dose PK/PD (1.0/5.0/10.0 mg/kg) in cats: DPP IV activity; type: in vivo, cat; conditions: for response vs control in vivo at 1 mg/kg: 1 mg/kg single oral; for response vs control in vivo at 1 mg/kg / response vs control in vivo at 5 mg/kg / response vs control in vivo at 10 mg/kg: read-out: DPP IV activity in cat plasma; for response vs control in vivo at 5 mg/kg: 5 mg/kg single oral; for response vs control in vivo at 10 mg/kg: 10 mg/kg single oral
# T2 construct: Blood samples for the determination of this compound and DPP IV activity were collected; from tissue; host or cells: plasma of domestic short hair / purpose-bred cats dosed orally
# Protocol: The investigation of the PK/PD values was conducted in the same way as in Example 7, with the variations described below.
# (§3) The aim of this study was to investigate the PK/PD behaviour of 1-[(3-cyano-pyridin-2-yl)methyl]-3-methyl-7-(2-butyn-1-yl)-8-[3-(R)-amino-piperidin-1-yl]-xanthine in the cat following a single oral administration of 0, 1, 5 and 10 mg/kg body weight (dosages were based on the free base: 1 mg 1-[(3-cyano-pyridin-2-yl)methyl]-3-methyl-7-(2-butyn-1-yl)-8-[3-(R)-amino-piperidin-1-yl]-xanthine monohydrochloride corresponds to 0.923 mg 1-[(3-cyano-pyridin-2-yl)methyl]-3-methyl-7-(2-butyn-1-yl)-8-[3-(R)-amino-piperidin-1-yl]-xanthine free base).
# Twelve clinically healthy male adult domestic short hair cats with a body weight range of 3.5-4.7 kg were used in this study. All animals were treated orally once via a stomach tube. Blood samples for pharmacokinetic and pharmacodynamic (DPP IV activity) investigations were drawn at 0 h (i.e. prior to treatment), 30 min as well as 1, 2, 4, 8, 8.5, 9, 12, 24, 36, 48, 72, 84 and 96 h after treatment. Blood samples for pharmacodynamic (glucagon-like peptide 1 concentrations) investigations were drawn at −16 (i.e. prior to feeding), −15.5, −15 h as well as at 8 h (i.e. prior to feeding), 8.5 and 9 h after treatment.
# alanine-amino-peptidase = alanine-amino-peptidase (Homo sapiens, UniProt P15144); test: In vitro selectivity, human proteases: alanine-amino-peptidase; type: biochemical; conditions: up to 100 μM
# Source text: as §1
# [3] = Multiple dose study (14 days) in cats: adverse events; type: in vivo, cat; conditions: 1, 3, 9 mg/animal once daily oral for 14 days
# Protocol: as §3, with “effects” for “behaviour”, “cats” for “the cat”, “repeated” for “a single”, “3” for “5”, “9 mg/animal over 14 days corresponding to a dose of 0, 0.25, 0.75 and 2.25” for “10”, “for a cat weighing 4 kg. (Dosages” for “(dosages”
# For this purpose, twelve clinically healthy male adult domestic short hair cats with a body weight range of 3.5-4.8 kg were used. The animals were randomly allocated to 4 groups, 3 animals per group. All animals were treated once daily orally for 14 days (i.e. on days 0-13). The test article was administered via capsules at doses of 1 (group II), 3 (group III) or 9 (group IV) mg of the monohydrochloride compound per animal; group I received placebo serving as controls. Blood samples for PK and PD (DPP IV activity) investigations were drawn at 0 h (i.e. prior to the 1st treatment), 0.5, 1, 2, 4, 8, 12 and 24 h after the 1st treatment as well as 24 h after the 3rd, 5th, 7th, 9th, 11th and 13th treatment and 0.5, 1, 2, 4, 8, 12 and 24 h after the 14th treatment.
# amino-peptidase P = test: In vitro selectivity, human proteases: amino-peptidase P; type: biochemical; conditions: up to 100 μM
# Source text: as §1
# Sequence of DPP IV (Homo sapiens, UniProt P27487) (P27487 whole entry, species assumed): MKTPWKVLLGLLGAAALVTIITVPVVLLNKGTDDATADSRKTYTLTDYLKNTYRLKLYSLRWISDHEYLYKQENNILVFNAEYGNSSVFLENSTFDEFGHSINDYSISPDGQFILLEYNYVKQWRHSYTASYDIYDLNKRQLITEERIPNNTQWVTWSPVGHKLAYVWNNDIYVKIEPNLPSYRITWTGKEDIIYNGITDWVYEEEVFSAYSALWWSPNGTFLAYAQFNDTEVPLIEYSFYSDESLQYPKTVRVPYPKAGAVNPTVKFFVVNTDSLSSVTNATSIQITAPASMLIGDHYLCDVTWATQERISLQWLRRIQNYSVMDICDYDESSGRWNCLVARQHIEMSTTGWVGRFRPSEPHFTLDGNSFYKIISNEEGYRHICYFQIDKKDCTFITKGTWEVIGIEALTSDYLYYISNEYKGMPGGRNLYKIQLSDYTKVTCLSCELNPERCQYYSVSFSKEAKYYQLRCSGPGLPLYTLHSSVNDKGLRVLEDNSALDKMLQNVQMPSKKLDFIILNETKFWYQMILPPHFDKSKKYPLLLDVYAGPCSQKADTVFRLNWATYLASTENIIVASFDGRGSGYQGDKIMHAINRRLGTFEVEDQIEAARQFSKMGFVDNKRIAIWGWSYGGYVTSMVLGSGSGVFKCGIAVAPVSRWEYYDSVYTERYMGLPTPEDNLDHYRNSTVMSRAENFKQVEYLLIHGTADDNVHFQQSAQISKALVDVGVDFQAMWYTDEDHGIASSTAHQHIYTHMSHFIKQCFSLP
# T2 sequence (Q9N2I7 38-765 limits assumed): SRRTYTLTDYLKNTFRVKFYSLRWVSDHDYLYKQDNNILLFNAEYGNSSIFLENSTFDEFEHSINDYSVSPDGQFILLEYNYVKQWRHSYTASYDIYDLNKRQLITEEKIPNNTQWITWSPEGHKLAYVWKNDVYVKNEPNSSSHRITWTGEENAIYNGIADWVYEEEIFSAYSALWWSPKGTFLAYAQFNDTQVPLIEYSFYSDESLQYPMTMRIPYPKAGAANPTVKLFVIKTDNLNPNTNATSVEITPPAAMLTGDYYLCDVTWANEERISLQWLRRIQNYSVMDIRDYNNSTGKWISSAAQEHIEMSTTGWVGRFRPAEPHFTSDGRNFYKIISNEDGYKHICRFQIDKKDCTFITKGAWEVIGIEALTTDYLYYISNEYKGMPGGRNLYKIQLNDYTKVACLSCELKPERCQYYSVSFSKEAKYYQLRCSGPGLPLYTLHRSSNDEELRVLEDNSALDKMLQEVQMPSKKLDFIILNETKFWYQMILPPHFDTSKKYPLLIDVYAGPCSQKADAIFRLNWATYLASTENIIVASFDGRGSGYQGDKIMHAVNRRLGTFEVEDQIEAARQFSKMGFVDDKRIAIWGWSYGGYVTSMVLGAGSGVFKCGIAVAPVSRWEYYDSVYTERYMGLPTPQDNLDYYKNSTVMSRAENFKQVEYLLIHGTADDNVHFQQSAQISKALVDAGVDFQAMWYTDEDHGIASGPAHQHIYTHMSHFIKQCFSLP
# Sequence of DPP 9 (Q86TI2 whole entry): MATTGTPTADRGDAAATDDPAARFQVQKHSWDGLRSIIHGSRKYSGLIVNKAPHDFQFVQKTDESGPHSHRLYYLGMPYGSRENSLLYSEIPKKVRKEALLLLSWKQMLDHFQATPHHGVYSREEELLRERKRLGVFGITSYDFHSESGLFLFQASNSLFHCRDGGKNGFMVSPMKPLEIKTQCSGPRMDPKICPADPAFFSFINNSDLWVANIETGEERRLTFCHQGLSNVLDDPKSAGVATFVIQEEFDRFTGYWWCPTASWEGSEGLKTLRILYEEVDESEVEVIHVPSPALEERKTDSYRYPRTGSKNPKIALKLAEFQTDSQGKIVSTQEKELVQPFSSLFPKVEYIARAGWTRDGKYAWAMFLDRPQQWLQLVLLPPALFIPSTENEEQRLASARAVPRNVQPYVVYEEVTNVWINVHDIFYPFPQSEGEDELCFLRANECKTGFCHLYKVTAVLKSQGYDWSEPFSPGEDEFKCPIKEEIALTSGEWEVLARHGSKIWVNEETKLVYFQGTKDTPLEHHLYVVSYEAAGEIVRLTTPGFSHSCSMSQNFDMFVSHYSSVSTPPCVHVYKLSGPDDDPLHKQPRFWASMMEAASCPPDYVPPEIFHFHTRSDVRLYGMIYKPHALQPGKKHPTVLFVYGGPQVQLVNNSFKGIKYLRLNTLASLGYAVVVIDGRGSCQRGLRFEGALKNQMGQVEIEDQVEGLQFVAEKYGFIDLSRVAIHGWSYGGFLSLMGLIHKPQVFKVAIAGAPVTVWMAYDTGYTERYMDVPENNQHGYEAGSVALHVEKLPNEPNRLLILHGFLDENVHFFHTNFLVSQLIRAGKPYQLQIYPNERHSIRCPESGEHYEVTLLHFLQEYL
# Sequence of alanine-amino-peptidase (P15144 whole entry): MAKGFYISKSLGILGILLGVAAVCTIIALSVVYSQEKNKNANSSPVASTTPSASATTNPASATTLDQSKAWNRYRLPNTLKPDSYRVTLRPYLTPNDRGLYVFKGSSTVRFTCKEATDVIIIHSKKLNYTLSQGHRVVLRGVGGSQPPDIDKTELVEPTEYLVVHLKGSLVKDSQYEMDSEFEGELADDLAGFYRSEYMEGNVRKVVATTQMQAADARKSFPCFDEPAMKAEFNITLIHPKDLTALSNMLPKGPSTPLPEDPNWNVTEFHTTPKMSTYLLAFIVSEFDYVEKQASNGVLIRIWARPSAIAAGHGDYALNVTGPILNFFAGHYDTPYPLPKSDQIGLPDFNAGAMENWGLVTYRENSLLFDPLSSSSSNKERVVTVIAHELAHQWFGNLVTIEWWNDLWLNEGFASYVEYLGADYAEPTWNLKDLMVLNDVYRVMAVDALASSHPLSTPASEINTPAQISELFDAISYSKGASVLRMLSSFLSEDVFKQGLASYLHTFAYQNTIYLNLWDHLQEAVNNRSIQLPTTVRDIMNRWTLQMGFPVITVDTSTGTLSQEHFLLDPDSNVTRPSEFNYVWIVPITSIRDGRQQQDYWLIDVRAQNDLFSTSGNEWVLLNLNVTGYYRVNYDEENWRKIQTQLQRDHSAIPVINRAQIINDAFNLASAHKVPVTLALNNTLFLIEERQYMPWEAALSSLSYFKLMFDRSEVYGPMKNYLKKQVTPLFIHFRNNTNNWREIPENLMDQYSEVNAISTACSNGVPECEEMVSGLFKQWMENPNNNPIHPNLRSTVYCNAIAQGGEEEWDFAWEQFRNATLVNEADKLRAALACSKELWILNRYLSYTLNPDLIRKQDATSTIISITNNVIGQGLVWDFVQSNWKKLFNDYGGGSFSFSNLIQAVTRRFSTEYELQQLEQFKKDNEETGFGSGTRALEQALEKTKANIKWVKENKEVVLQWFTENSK
# T1 sequence (P27487 39-766 limits assumed): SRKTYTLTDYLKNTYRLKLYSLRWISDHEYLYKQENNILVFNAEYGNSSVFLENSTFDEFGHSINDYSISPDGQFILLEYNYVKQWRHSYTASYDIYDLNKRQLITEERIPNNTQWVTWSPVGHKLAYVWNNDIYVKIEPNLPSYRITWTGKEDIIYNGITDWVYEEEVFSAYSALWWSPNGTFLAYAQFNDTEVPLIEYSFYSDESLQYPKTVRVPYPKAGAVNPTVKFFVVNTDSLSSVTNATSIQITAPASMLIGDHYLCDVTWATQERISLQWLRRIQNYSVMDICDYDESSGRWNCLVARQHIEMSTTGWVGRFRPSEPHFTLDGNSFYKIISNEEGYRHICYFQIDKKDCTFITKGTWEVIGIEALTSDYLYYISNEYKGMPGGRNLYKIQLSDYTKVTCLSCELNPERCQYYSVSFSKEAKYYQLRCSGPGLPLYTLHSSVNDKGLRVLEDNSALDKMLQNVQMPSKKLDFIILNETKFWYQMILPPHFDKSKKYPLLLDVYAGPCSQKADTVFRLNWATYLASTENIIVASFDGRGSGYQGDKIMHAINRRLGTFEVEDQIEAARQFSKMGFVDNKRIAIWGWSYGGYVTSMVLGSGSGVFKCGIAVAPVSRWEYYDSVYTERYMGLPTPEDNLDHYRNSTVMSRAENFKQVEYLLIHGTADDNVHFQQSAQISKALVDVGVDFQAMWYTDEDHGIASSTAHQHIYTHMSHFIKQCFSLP
structure (smiles),measurement,setting,value
CC#CCn1c(N2CCC[C@@H](N)C2)nc2c1c(=O)n(Cc1ncccc1C#N)c(=O)n2C [1-[(3-cyano-pyridin-2-yl)methyl]-3-methyl-7-(2-butyn-1-yl)-8-[3-(R)-amino-piperidin-1-yl]-xanthine monohydrochloride],IC50,DPP 9,> 10000 nM
same,IC50,plasma DPP IV,~0.6 nM
same,IC50,DPP IV [1]; GLP-1 as substrate,~0.18 nM
same,IC50,DPP IV [1]; dipeptide artificial substrate,~1 nM
same,mode of DPP IV inhibition,DPP IV [1]; mechanistic studies,competitive and reversible inhibitor
same,time up to which DPP IV values remained ≦20%,DPP IV [2]; 1.0 mg/kg single oral,12 h
same,response vs control in vivo at 1 mg/kg,DPP IV [2]; 0.5 h,8%
same,response vs control in vivo at 1 mg/kg,DPP IV [2]; 1 h,7%
same,response vs control in vivo at 1 mg/kg,DPP IV [2]; 2 h,7%
same,response vs control in vivo at 1 mg/kg,DPP IV [2]; 4 h,7.3%
same,response vs control in vivo at 1 mg/kg,DPP IV [2]; 8 h,9.3%
same,response vs control in vivo at 1 mg/kg,DPP IV [2]; 8.5 h,9.7%
same,response vs control in vivo at 1 mg/kg,DPP IV [2]; 9 h,9.7%
same,response vs control in vivo at 1 mg/kg,DPP IV [2]; 12 h,12.3%
same,response vs control in vivo at 1 mg/kg,DPP IV [2]; 24 h,22.3%
same,response vs control in vivo at 1 mg/kg,DPP IV [2]; 36 h,43%
same,response vs control in vivo at 1 mg/kg,DPP IV [2]; 48 h,59%
same,response vs control in vivo at 1 mg/kg,DPP IV [2]; 72 h,74.7%
same,response vs control in vivo at 1 mg/kg,DPP IV [2]; 84 h,84.3%
same,response vs control in vivo at 1 mg/kg,DPP IV [2]; 96 h,81.7%
same,time up to which DPP IV values remained ≦20%,DPP IV [2]; 5.0 mg/kg single oral,24 h
same,response vs control in vivo at 5 mg/kg,DPP IV [2]; 0.5 h,7.7%
same,response vs control in vivo at 5 mg/kg,DPP IV [2]; 1 h,7%
same,response vs control in vivo at 5 mg/kg,DPP IV [2]; 2 h,7%
same,response vs control in vivo at 5 mg/kg,DPP IV [2]; 4 h,7.7%
same,response vs control in vivo at 5 mg/kg,DPP IV [2]; 8 h,8.3%
same,response vs control in vivo at 5 mg/kg,DPP IV [2]; 8.5 h,8.7%
same,response vs control in vivo at 5 mg/kg,DPP IV [2]; 9 h,9%
same,response vs control in vivo at 5 mg/kg,DPP IV [2]; 12 h,9.3%
same,response vs control in vivo at 5 mg/kg,DPP IV [2]; 24 h,14.7%
same,response vs control in vivo at 5 mg/kg,DPP IV [2]; 36 h,25.7%
same,response vs control in vivo at 5 mg/kg,DPP IV [2]; 48 h,42.7%
same,response vs control in vivo at 5 mg/kg,DPP IV [2]; 72 h,72.3%
same,response vs control in vivo at 5 mg/kg,DPP IV [2]; 84 h,90%
same,response vs control in vivo at 5 mg/kg,DPP IV [2]; 96 h,87.7%
same,time up to which DPP IV values remained ≦20%,DPP IV [2]; 10.0 mg/kg single oral,48 h
same,response vs control in vivo at 10 mg/kg,DPP IV [2]; 0.5 h,8%
same,response vs control in vivo at 10 mg/kg,DPP IV [2]; 1 h,7.3%
same,response vs control in vivo at 10 mg/kg,DPP IV [2]; 2 h,7.3%
same,response vs control in vivo at 10 mg/kg,DPP IV [2]; 4 h,9%
same,response vs control in vivo at 10 mg/kg,DPP IV [2]; 8 h,9%
same,response vs control in vivo at 10 mg/kg,DPP IV [2]; 8.5 h,9.7%
same,response vs control in vivo at 10 mg/kg,DPP IV [2]; 9 h,9.3%
same,response vs control in vivo at 10 mg/kg,DPP IV [2]; 12 h,9.7%
same,response vs control in vivo at 10 mg/kg,DPP IV [2]; 24 h,12.3%
same,response vs control in vivo at 10 mg/kg,DPP IV [2]; 36 h,16.3%
same,response vs control in vivo at 10 mg/kg,DPP IV [2]; 48 h,20%
same,response vs control in vivo at 10 mg/kg,DPP IV [2]; 72 h,37%
same,response vs control in vivo at 10 mg/kg,DPP IV [2]; 84 h,58.3%
same,response vs control in vivo at 10 mg/kg,DPP IV [2]; 96 h,67.3%
same,minimum mean DPP IV values,"DPP IV [2]; all three groups (1.0, 5.0, 10.0 mg/kg single oral)",7%
same,plasma concentration at which maximum DPP-IV inhibition was reached,"DPP IV [2]; cat, PK-PD correlation",15 to 30 nmol/L
same,inhibitory effect on alanine-amino-peptidase,alanine-amino-peptidase,did not exert any inhibitory effect
same,adverse events,[3],No adverse events specifically attributable to the test article were noted
same,inhibitory effect on amino-peptidase P,amino-peptidase P,did not exert any inhibitory effect
